# Numbered stars: 1 amine (or outer) side, 2 acyl side, 3 side chain; on linkers, the order of the positions; unused ones are H or OH. Side chains are listed from the residue outwards. Peptide text beside a SMILES is read from it. * marks the point of attachment. C18 diacid = O=C(O)CCCCCCCCCCCCCCCCC(=O)*; γGlu = O=C(O)[C@H](CCC(=O)[*:2])N[*:1]; Palmitoyl = CCCCCCCCCCCCCCCC(=O)*; AEEA = NCCOCCOCC(=O)O
# Assays:
# Format in all cases: functional, cell-based
# Glucagon receptor [1] = biological target: T1, Glucagon receptor (Homo sapiens, UniProt P47871); assay: Agonist activity at human GCGR expressed in HEK293 cells assessed as cAMP level measured after 60 mins by HTRF based assay
# [2] = biological target: T2, Glucagon-like peptide 1 receptor (Homo sapiens, UniProt P43220); assay: Agonist activity at human GLP-1 receptor expressed in HEK293 cells assessed as cAMP level by measuring relative percent (GLP-1 EC50/compound EC50) measured after 60 mins by HTRF based assay relative to GLP-1; details: filed as agonist
# [3] = biological target: T2, Glucagon-like peptide 1 receptor; assay: Agonist activity at human GLP-1 receptor expressed in HEK293 cells assessed as cAMP level measured after 60 mins by HTRF based assay
# Glucagon receptor [4] = biological target: T1, Glucagon receptor; assay: Agonist activity at human GCGR expressed in HEK293 cells assessed as cAMP level by measuring relative percent (glucagon EC50/compound EC50) measured after 60 mins by HTRF based assay relative to glucagon
# T1 sequence (P47871 whole entry): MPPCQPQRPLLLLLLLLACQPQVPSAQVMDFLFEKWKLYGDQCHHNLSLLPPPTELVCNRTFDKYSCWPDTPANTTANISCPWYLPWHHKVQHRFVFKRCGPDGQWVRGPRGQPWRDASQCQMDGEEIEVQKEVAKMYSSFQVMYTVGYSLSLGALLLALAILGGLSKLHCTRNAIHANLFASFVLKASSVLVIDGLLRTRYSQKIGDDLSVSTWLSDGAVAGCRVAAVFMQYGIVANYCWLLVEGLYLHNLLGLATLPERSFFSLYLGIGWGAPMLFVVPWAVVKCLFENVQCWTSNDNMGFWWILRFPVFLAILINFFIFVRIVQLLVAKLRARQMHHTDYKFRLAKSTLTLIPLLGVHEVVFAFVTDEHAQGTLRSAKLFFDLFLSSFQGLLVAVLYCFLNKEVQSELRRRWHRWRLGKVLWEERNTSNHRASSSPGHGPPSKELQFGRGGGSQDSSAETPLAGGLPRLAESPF
# T2 sequence (P43220 whole entry): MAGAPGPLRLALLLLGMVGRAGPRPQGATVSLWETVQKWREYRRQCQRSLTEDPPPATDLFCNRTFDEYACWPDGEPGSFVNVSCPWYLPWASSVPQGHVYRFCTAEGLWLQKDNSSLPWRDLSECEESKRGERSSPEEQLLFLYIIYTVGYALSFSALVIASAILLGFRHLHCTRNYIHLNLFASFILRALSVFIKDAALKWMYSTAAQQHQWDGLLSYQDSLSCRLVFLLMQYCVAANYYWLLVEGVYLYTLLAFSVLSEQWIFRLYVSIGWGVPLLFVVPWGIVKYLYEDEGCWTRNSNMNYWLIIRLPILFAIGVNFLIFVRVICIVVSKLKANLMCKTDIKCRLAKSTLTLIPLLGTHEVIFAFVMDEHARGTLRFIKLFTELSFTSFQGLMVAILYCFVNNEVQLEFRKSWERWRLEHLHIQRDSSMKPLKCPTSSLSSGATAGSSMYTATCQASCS
Molecule,EC50 [3],further results
CSCC[C@H](NC(=O)[C@H](CC(=O)O)NC(=O)[C@H](CO)NC(=O)[C@@H](NC(=O)[C@H](Cc1ccccc1)NC(=O)[C@@H](NC(=O)CNC(=O)[C@H](CCC(N)=O)NC(=O)[C@H](CO)NC(=O)[C@@H](N)Cc1c[nH]cn1)[C@@H](C)O)[C@@H](C)O)C(=O)N[C@@H](CO)C(=O)N[C@@H](CCCCNC(=O)COCCOCCNC(=O)COCCOCCNC(=O)CC[C@H](NC(=O)CCCCCCCCCCCCCCCCC(=O)O)C(=O)O)C(=O)N[C@@H](Cc1ccc(O)cc1)C(=O)N[C@@H](CC(C)C)C(=O)N[C@@H](CC(=O)O)C(=O)N[C@@H](CO)C(=O)N[C@@H](CCCNC(=N)N)C(=O)N[C@@H](CCCNC(=N)N)C(=O)N[C@@H](C)C(=O)N[C@@H](CCC(N)=O)C(=O)N[C@@H](CC(=O)O)C(=O)N[C@@H](Cc1ccccc1)C(=O)N[C@H](C(=O)N[C@@H](CC(=O)O)C(=O)N[C@@H](Cc1c[nH]c2ccccc12)C(=O)N[C@@H](CC(C)C)C(=O)N[C@@H](CCCCN)C(=O)N[C@@H](CC(N)=O)C(=O)NCC(=O)NCC(=O)N1CCC[C@H]1C(=O)N[C@@H](CO)C(=O)N[C@@H](CO)C(=O)NCC(=O)N[C@@H](C)C(=O)N1CCC[C@H]1C(=O)N1CCC[C@H]1C(=O)N1CCC[C@H]1C(=O)N[C@@H](CO)C(N)=O)C(C)C (H-HSQGTFTSDMSK([AEEA-AEEA-γGlu-C18 diacid])YLDSRRAQDFVDWLKNGGPSSGAPPPS-NH2),0.052 nM,EC50 (Glucagon receptor [1]): 1.4 nM; Activity [2]: 102%; Activity (Glucagon receptor [4]): 7%
CCCCCCCCCCCCCCCC(=O)N[C@@H](CCC(=O)NCCCC[C@H](NC(=O)[C@H](CO)NC(=O)[C@H](CCSC)NC(=O)[C@H](CC(=O)O)NC(=O)[C@H](CO)NC(=O)[C@@H](NC(=O)[C@H](Cc1ccccc1)NC(=O)[C@@H](NC(=O)CNC(=O)[C@H](CCC(N)=O)NC(=O)[C@H](CO)NC(=O)[C@@H](N)Cc1c[nH]cn1)[C@@H](C)O)[C@@H](C)O)C(=O)N[C@@H](Cc1ccc(O)cc1)C(=O)N[C@@H](CC(C)C)C(=O)N[C@@H](CC(=O)O)C(=O)N[C@@H](CO)C(=O)N[C@@H](CCCNC(=N)N)C(=O)N[C@@H](CCCNC(=N)N)C(=O)N[C@@H](C)C(=O)N[C@@H](CCC(N)=O)C(=O)N[C@@H](CC(=O)O)C(=O)N[C@@H](Cc1ccccc1)C(=O)N[C@H](C(=O)N[C@@H](CC(=O)O)C(=O)N[C@@H](Cc1c[nH]c2ccccc12)C(=O)N[C@@H](CC(C)C)C(=O)N[C@@H](CCCCN)C(=O)N[C@@H](CC(N)=O)C(=O)NCC(=O)NCC(=O)N1CCC[C@H]1C(=O)N[C@@H](CO)C(=O)N[C@@H](CO)C(=O)NCC(=O)N[C@@H](C)C(=O)N1CCC[C@H]1C(=O)N1CCC[C@H]1C(=O)N1CCC[C@H]1C(=O)N[C@@H](CO)C(N)=O)C(C)C)C(=O)O (H-HSQGTFTSDMSK([γGlu-Palmitoyl])YLDSRRAQDFVDWLKNGGPSSGAPPPS-NH2),0.046 nM,EC50 (Glucagon receptor [1]): 0.19 nM; Activity [2]: 115%; Activity (Glucagon receptor [4]; filed as agonist): 48%
CSCC[C@H](NC(=O)[C@H](CC(=O)O)NC(=O)[C@H](CO)NC(=O)[C@@H](NC(=O)[C@H](Cc1ccccc1)NC(=O)[C@@H](NC(=O)CNC(=O)[C@H](CCC(N)=O)NC(=O)[C@H](CO)NC(=O)[C@@H](N)Cc1c[nH]cn1)[C@@H](C)O)[C@@H](C)O)C(=O)N[C@@H](CO)C(=O)N[C@@H](CCCCN)C(=O)N[C@@H](Cc1ccc(O)cc1)C(=O)N[C@@H](CCCCNC(=O)COCCOCCNC(=O)COCCOCCNC(=O)CC[C@H](NC(=O)CCCCCCCCCCCCCCCCC(=O)O)C(=O)O)C(=O)N[C@@H](CC(=O)O)C(=O)N[C@@H](CO)C(=O)N[C@@H](CCCNC(=N)N)C(=O)N[C@@H](CCCNC(=N)N)C(=O)N[C@@H](C)C(=O)N[C@@H](CCC(N)=O)C(=O)N[C@@H](CC(=O)O)C(=O)N[C@@H](Cc1ccccc1)C(=O)N[C@H](C(=O)N[C@@H](CC(=O)O)C(=O)N[C@@H](Cc1c[nH]c2ccccc12)C(=O)N[C@@H](CC(C)C)C(=O)N[C@@H](CCCCN)C(=O)N[C@@H](CC(N)=O)C(=O)NCC(=O)NCC(=O)N1CCC[C@H]1C(=O)N[C@@H](CO)C(=O)N[C@@H](CO)C(=O)NCC(=O)N[C@@H](C)C(=O)N1CCC[C@H]1C(=O)N1CCC[C@H]1C(=O)N1CCC[C@H]1C(=O)N[C@@H](CO)C(N)=O)C(C)C (H-HSQGTFTSDMSKYK([AEEA-AEEA-γGlu-C18 diacid])DSRRAQDFVDWLKNGGPSSGAPPPS-NH2),0.049 nM,EC50 (Glucagon receptor [1]): 1.2 nM; Activity [2]: 108%; Activity (Glucagon receptor [4]): 8%
CSCC[C@H](NC(=O)[C@H](CC(=O)O)NC(=O)[C@H](CO)NC(=O)[C@@H](NC(=O)[C@H](Cc1ccccc1)NC(=O)[C@@H](NC(=O)CNC(=O)[C@H](CCC(N)=O)NC(=O)[C@H](CO)NC(=O)[C@@H](N)Cc1c[nH]cn1)[C@@H](C)O)[C@@H](C)O)C(=O)N[C@@H](CO)C(=O)N[C@@H](CCCCN)C(=O)N[C@@H](Cc1ccc(O)cc1)C(=O)N[C@@H](CC(C)C)C(=O)N[C@@H](CC(=O)O)C(=O)N[C@@H](CO)C(=O)N[C@@H](CCCNC(=N)N)C(=O)N[C@@H](CCCNC(=N)N)C(=O)N[C@@H](C)C(=O)N[C@@H](CCC(N)=O)C(=O)N[C@@H](CC(=O)O)C(=O)N[C@@H](Cc1ccccc1)C(=O)N[C@H](C(=O)N[C@@H](CC(=O)O)C(=O)N[C@@H](Cc1c[nH]c2ccccc12)C(=O)N[C@@H](CC(C)C)C(=O)N[C@@H](CCCCN)C(=O)N[C@@H](CC(N)=O)C(=O)NCC(=O)NCC(=O)N1CCC[C@H]1C(=O)N[C@@H](CO)C(=O)N[C@@H](CO)C(=O)NCC(=O)N[C@@H](C)C(=O)N1CCC[C@H]1C(=O)N1CCC[C@H]1C(=O)N1CCC[C@H]1C(=O)N[C@@H](CO)C(=O)N[C@@H](CCCCNC(=O)COCCOCCNC(=O)COCCOCCNC(=O)CC[C@H](NC(=O)CCCCCCCCCCCCCCCCC(=O)O)C(=O)O)C(N)=O)C(C)C (H-HSQGTFTSDMSKYLDSRRAQDFVDWLKNGGPSSGAPPPSK([AEEA-AEEA-γGlu-C18 diacid])-NH2),0.034 nM,EC50 (Glucagon receptor [1]): 3.1 nM; Activity [2]: 156%; Activity (Glucagon receptor [4]): 3%
H-HADGIYTSDVASLTDYLKSKRFVESLSNYNRKQNDRRM-NH2,0.19 nM,–
H-HADGTFTNDMTSYLDAKAARDFVSWLARSDKS-NH2,0.23 nM,–
H-HADGTFTSDMSAYLEEKAAKEFVDWLIKGRPK-NH2,0.12 nM,–
H-HADGTFTSDMSSALEEKAAKEFVDWLIKGRPK-NH2,0.56 nM,–
H-HADGTFTSDMSSYLAEKAAKEFVDWLIKGRPK-NH2,0.61 nM,–
H-HADGTFTSDMSSYLEEKAAKAFVDWLIKGRPK-NH2,0.11 nM,–
H-HADGTFTSDMSSYLEEKAAKEAVDWLIKGRPK-NH2,0.66 nM,–
H-HADGTFTSDMSSYLEEKAAKEFADWLIKGRPK-NH2,0.094 nM,–
H-HADGTFTSDMSSYLEEKAAKEFVAWLIKGRPK-NH2,0.096 nM,–
H-HADGTFTSDMSSYLEEKAAKEFVDALIKGRPK-NH2,0.092 nM,–
H-HADGTFTSDMSSYLEEKAAKEFVDWAIKGRPK-NH2,0.53 nM,–
H-HADGTFTSDMSSYLEEKAAKEFVDWLIAGRPK-NH2,0.12 nM,–
H-HADGTFTSDMSSYLEEKAAKEFVDWLIKARPK-NH2,0.63 nM,–
H-HADGTFTSDMSSYLEEKAAKEFVDWLIKGAPK-NH2,0.097 nM,–
H-HADGTFTSDMSSYLEEKAAKEFVDWLIKGRAK-NH2,0.099 nM,–
H-HADGTFTSDMSSYLEEKAAKEFVDWLIKGRPA-NH2,0.018 nM,–
H-HADGTFTSDMSSYLEEKAAKEFVDWLIKGRPK-NH2,0.051 nM,–
H-HADGTFTSDMSSYLEEKRAKEFVDWLIKGRPK-NH2,0.72 nM,–
H-HADGTYTSDVSSYLQDQAAKKFVTWLKQGQDRRE-NH2,0.35 nM,–
H-HAEGTYTDDVSTYLQDQAAKDFVSWLKSGRA-NH2,0.31 nM,–

# Source: ChEMBL document CHEMBL5532661, “Discovery of a Novel Glucagon-like Peptide-1 (GLP-1) Analogue from Bullfrog and Investigation of Its Potential for Designing GLP-1-Based Multiagonists” (J Med Chem, 2024)
